test system: HCV genotype 1b replicon; experiment: HCV replicon assay, cell ELISA with antibody to replicon-encoded NS3/4A (genotype 1b replicon); type: cell-based, hepatitis C virus; conditions: Hepatitis C virus, 96 h, read-out: 1b IC50(nM), HCV genotype 1b replicon; 96 hours incubation; NS3/4A cell ELISA
Procedure, shortened: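 An ELISA on lysed cells, using an antibody against NS3/4A protease, served as the proxy for replicon RNA. Cells had first been exposed for 96 h to serially diluted compound in G418-free conditions. Percent of DMSO control was fitted with a four-parameter function to give IC50.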

| Structure (SMILES) | IC50 [nM] |
| --- | --- |
| CNC(=O)c1c(-c2ccc(F)cc2)oc2cc(N(C)S(C)(=O)=O)c(-c3ccc(OC)c(-c4nc5c(F)cccc5o4)c3)cc12 [Example 411, 5-[3-(4-Fluoro-benzooxazol-2-yl)-4-methoxy-phenyl]-2-(4-fluoro-phenyl)-6-(methanesulfonyl-methyl-amino)-benzofuran-3-carboxylic acid methylamide] | 7.1 |
| CNC(=O)c1c(-c2ccc(F)cc2)oc2cc(N(C)S(C)(=O)=O)c(-c3ccc(S(C)(=O)=O)c(-c4nc5c(Cl)cccc5o4)c3)cc12 [Example 420] | 5.08 |
| CNC(=O)c1c(-c2ccc(F)cc2)oc2cc(N(C)S(C)(=O)=O)c(-c3cc(-c4nc5c(F)cccc5o4)c4oc(=O)[nH]c4c3)cc12 [Example 425] | 3.04 |
| CNC(=O)c1c(-c2ccc(F)cc2)oc2cc(N(C)S(C)(=O)=O)c(-c3ccc(OC)c(-c4nc5c(CC#N)cccc5[nH]4)c3)cc12 [Example 427] | 4.35 |
| CNC(=O)c1c(-c2ccc(F)cc2)oc2cc(N(C)S(C)(=O)=O)c(-c3ccc(OC)c(-c4nc5c(C(C)(C)C#N)cccc5o4)c3)cc12 [Example 428] | 29.1 |
| CNC(=O)c1c(-c2ccc(F)cc2)oc2cc(N(C)S(C)(=O)=O)c(-c3ccc(CC#N)c(-c4nc5c(F)cccc5o4)c3)cc12 [Example 429] | 4.91 |
| CNC(=O)c1c(-c2ccc(F)cc2)oc2cc(N(C)S(C)(=O)=O)c(-c3cc4c(c(-c5nc6c(F)cccc6o5)c3)OCCO4)cc12 [Example 436] | 4.37 |
| CNC(=O)c1c(-c2ccc(F)cc2)oc2cc(N(C)S(C)(=O)=O)c(-c3ccc(-c4ccco4)c(-c4nc5c(F)cccc5o4)c3)cc12 [Example 478] | 8.65 |
| CNC(=O)c1c(-c2ccc(F)cc2)oc2cc(N(C)S(C)(=O)=O)c(-c3ccc(-c4cnco4)c(-c4nc5c(F)cccc5o4)c3)cc12 [Example 479] | 1.95 |
| CNC(=O)c1c(-c2ccc(F)cc2)oc2cc(N(C)S(C)(=O)=O)c(-c3ccc(-c4cnco4)c(-c4nc5c(Cl)cccc5o4)c3)cc12 [Example 480] | 3.01 |
| CNC(=O)c1c(-c2ccc(F)cc2)oc2cc(N(C)S(C)(=O)=O)c(-c3ccc(N4CCOC4=O)c(-c4nc5c(F)cccc5o4)c3)cc12 [Example 483] | 2.48 |
| CNC(=O)c1c(-c2ccc(F)cc2)oc2cc(N(C)S(C)(=O)=O)c(-c3ccc(N4CCNC4=O)c(-c4nc5c(F)cccc5o4)c3)cc12 [Example 484] | 3.31 |
| CNC(=O)c1c(-c2ccc(F)cc2)oc2cc(N(C)S(C)(=O)=O)c(-c3csc(-c4nc5c(F)cccc5o4)c3)cc12 [Example 504] | 1.53 |
| CNC(=O)c1c(-c2ccc(F)cc2)oc2cc(N(C)S(C)(=O)=O)c(-c3cnc(OC)c(-c4nc5c(F)cccc5o4)c3)cc12 [Example 507] | 0.68 |
| CNC(=O)c1c(-c2ccc(F)cc2)oc2cc(N(C)S(C)(=O)=O)c(-c3cc(-c4nc5ncccc5o4)ccn3)cc12 [Example 509] | 3 |
| CNC(=O)c1c(-c2ccc(F)cc2)oc2cc(N(C)S(C)(=O)=O)c(-c3cccc(-c4nc5c(o4)CCCC5(F)F)c3)cc12 [Example 515] | 3.99 |

same assay, conditions: Hepatitis C virus, 96 h, read-out: Replicon 1b IC50 (nM), HCV genotype 1b replicon cells, 96 hours incubation, NS3/4A ELISA readout

| Structure (SMILES) | IC50 [nM] |
| --- | --- |
| CNC(=O)c1c(-c2ccc(F)cc2)oc2cc(N(C)S(C)(=O)=O)c(-c3cc(OC)cc(-c4nc5nccnc5[nH]4)c3)cc12 [Example 339] | 4 |
| CNC(=O)c1c(-c2ccc(F)cc2)oc2cc(N(C)S(C)(=O)=O)c(-c3ccc(Cl)c(-c4nc5nccnc5[nH]4)c3)cc12 [Example 340] | 15.8 |
| CNC(=O)c1c(-c2ccc(F)cc2)oc2cc(N(C)S(C)(=O)=O)c(-c3cccc(-c4nc5cncnc5[nH]4)c3)cc12 [Example 341] | 14.6 |
| CNC(=O)c1c(-c2ccc(F)cc2)oc2cc(N(C)S(C)(=O)=O)c(-c3ccc(F)c(-c4nc5cncnc5[nH]4)c3)cc12 [Example 342] | 5.1 |
| CNC(=O)c1c(-c2ccc(F)cc2)oc2cc(N(C)S(C)(=O)=O)c(-c3ccc(OC)c(-c4nc5cncnc5[nH]4)c3)cc12 [Example 344] | 2.2 |
| CNC(=O)c1c(-c2ccc(F)cc2)oc2cc(N(C)S(C)(=O)=O)c(-c3cc(OC)cc(-c4nc5cncnc5[nH]4)c3)cc12 [Example 345] | 2.1 |
| CNC(=O)c1c(-c2ccc(F)cc2)oc2cc(N(C)S(C)(=O)=O)c(-c3cccc(-c4nc5cncnc5[nH]4)c3O)cc12 [Example 346] | 165 |
| CNC(=O)c1c(-c2ccc(F)cc2)oc2cc(N(C)S(C)(=O)=O)c(-c3ccc(Cl)c(-c4nc5cncnc5[nH]4)c3)cc12 [Example 347] | 8.1 |
| CNC(=O)c1c(-c2ccc(F)cc2)oc2cc(N(C)S(C)(=O)=O)c(-c3cc(C#N)cc(-c4nc5cncnc5[nH]4)c3)cc12 [Example 348] | 72.7 |
| CNC(=O)c1c(-c2ccc(F)cc2)oc2cc(N(C)S(C)(=O)=O)c(-c3ccc(OC)c(-c4nc5c(N)ncnc5[nH]4)c3)cc12 [Example 349] | 5.7 |
| CNC(=O)c1c(-c2ccc(F)cc2)oc2cc(N(C)S(C)(=O)=O)c(-c3cc(F)cc(-c4nc5c(N)ncnc5[nH]4)c3)cc12 [Example 350] | 0.7 |
| CNC(=O)c1c(-c2ccc(F)cc2)oc2cc(N(C)S(C)(=O)=O)c(-c3cccc(-c4ccc5cccnc5c4)c3)cc12 [Example 353] | 4.2 |
| CNC(=O)c1c(-c2ccc(F)cc2)oc2cc(N(C)S(C)(=O)=O)c(-c3cccc(-c4cc5ccc(OC)cc5[nH]4)c3)cc12 [Example 356] | 5.9 |
| CNC(=O)c1c(-c2ccc(F)cc2)oc2cc(N(C)S(C)(=O)=O)c(-c3cccc(-c4cc5ccc(OCc6ccccc6)cc5[nH]4)c3)cc12 [Example 360] | 30.5 |
| CNC(=O)c1c(-c2ccc(F)cc2)oc2cc(N(C)S(C)(=O)=O)c(-c3cccc(-c4cc5ccccc5[nH]4)c3)cc12 [Example 366, 5-(3-(1H-indol-2-yl)phenyl)-2-(4-fluorophenyl)-N-methyl-6-(N-methylmethylsulfonamido)benzofuran-3-carboxamide] | 4.2 |
| CNC(=O)c1c(-c2ccc(F)cc2)oc2cc(N(C)S(C)(=O)=O)c(-c3cccc(-c4[nH]c5ccccc5c4Cl)c3)cc12 [Example 381] | 5.1 |
| CNC(=O)c1c(-c2ccc(F)cc2)oc2cc(N(C)S(C)(=O)=O)c(-c3cccc(-c4[nH]c5ccccc5c4Br)c3)cc12 [Example 382, 5-(3-(3-bromo-1H-indol-2-yl)phenyl)-2-(4-fluorophenyl)-N-methyl-6-(N-methylmethylsulfonamido)benzofuran-3-carboxamide] | 8.9 |
| CNC(=O)c1c(-c2ccc(F)cc2)oc2cc(N(C)S(C)(=O)=O)c(-c3cccc(-c4[nH]c5ncccc5c4CO)c3)cc12 [Example 383, 2-(4-fluorophenyl)-5-(3-(3-(hydroxymethyl)-1H-pyrrolo[2,3-b]pyridin-2-yl)phenyl)-N-methyl-6-(N-methylmethylsulfonamido)benzofuran-3-carboxamide] | 2.5 |
| CNC(=O)c1c(-c2ccc(F)cc2)oc2cc(N(CCCO)S(C)(=O)=O)c(-c3cccc(-c4nc5ncccc5o4)c3)cc12 [Example 384, 2-(4-fluorophenyl)-6-(N-(3-hydroxypropyl)methylsulfonamido)-N-methyl-5-(3-(oxazolo[4,5-b]pyridin-2-yl)phenyl)benzofuran-3-carboxamide] | 0.9 |
| CNC(=O)c1c(-c2ccc(F)cc2)oc2cc(N(CCN3CCOCC3)S(C)(=O)=O)c(-c3cccc(-c4nc5ncccc5o4)c3)cc12 [Example 397, 2-(4-fluorophenyl)-N-methyl-6-(N-(2-morpholinoethyl)methylsulfonamido)-5-(3-(oxazolo[4,5-b]pyridin-2-yl)phenyl)benzofuran-3-carboxamide] | 3.6 |
| CNC(=O)c1c(-c2ccc(F)cc2)oc2cc(N(C)S(=O)(=O)c3ccccc3)c(-c3cccc(-c4nc5ncccc5o4)c3)cc12 [Example 400, 2-(4-fluorophenyl)-N-methyl-6-(N-methylphenylsulfonamido)-5(3-(oxazolo[4,5-b]pyridin-2-yl)phenyl)benzofuran-3-carboxamide] | 303 |
| CNC(=O)c1c(-c2ccc(F)cc2)oc2cc(N(C)S(C)(=O)=O)c(-c3ccc(OC)c(-c4nc5c(F)cccc5o4)c3)cc12 [Example 402, 5-(3-(4-fluorobenzo[d]oxazol-2-yl)-4-methoxyphenyl)-2-(4-fluorophenyl)-N-methyl-6-(N-methylmethylsulfonamido)benzofuran-3-carboxamide] | 0.9 |
| CNC(=O)c1c(-c2ccc(F)cc2)oc2cc(N(C)S(C)(=O)=O)c(-c3ccc(OC)c(-c4nc5c(C#N)cccc5o4)c3)cc12 [Example 403, 5-(3-(4-cyanobenzo[d]oxazol-2-yl)-4-methoxyphenyl)-2-(4-fluorophenyl)-N-methyl-6-(N-methylmethylsulfonamido)benzofuran-3-carboxamide] | 3.8 |
| CNC(=O)c1c(-c2ccc(F)cc2)oc2cc(N(C)S(C)(=O)=O)c(-c3ccc(OC)c(-c4nc5cc(F)ccc5o4)c3)cc12 [Example 404] | 2.6 |
| CNC(=O)c1c(-c2ccc(F)cc2)oc2cc(N(C)S(C)(=O)=O)c(-c3ccc(Cl)c(-c4nc5c(F)cccc5o4)c3)cc12 [Example 405] | 4.7 |
| CNC(=O)c1c(-c2ccc(F)cc2)oc2cc(N(C)S(C)(=O)=O)c(-c3cc(Cl)cc(-c4nc5c(F)cccc5o4)c3)cc12 [Example 406] | 15.1 |
| CNC(=O)c1c(-c2ccc(F)cc2)oc2cc(N(C)S(C)(=O)=O)c(-c3ccc(OC)c(-c4nc5cccc(C#N)c5o4)c3)cc12 [Example 407] | 2.8 |
| CNC(=O)c1c(-c2ccc(F)cc2)oc2cc(N(C)S(C)(=O)=O)c(-c3ccc(OC)c(-c4nc5c(F)cc(F)cc5o4)c3)cc12 [Example 408] | 3.8 |
| CNC(=O)c1c(-c2ccc(F)cc2)oc2cc(N(C)S(C)(=O)=O)c(-c3ccc(OC)c(-c4nc5c(F)ccc(F)c5o4)c3)cc12 [Example 409] | 2.1 |
| CNC(=O)c1c(-c2ccc(F)cc2)oc2cc(N(C)S(C)(=O)=O)c(-c3ccc(OC)c(-c4nc5cc(F)cc(F)c5o4)c3)cc12 [Example 410] | 0.5 |
